Measured values published in patent US20140357713A1, “ANTIMICROBIAL COMPOUNDS AND METHODS OF USE” (NexMed Holdings, Inc., priority 2012, published 2014).
Where two headings read alike, the source gives them in different places.

Columns and labels:
[1] = tested on: Aspergillus niger (CMCC 98003); test: Minimum inhibitory concentration (MIC) assay, Example 33; format: cell-based; conditions: Aspergillus niger
How it was run: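 Broth microdilution MIC per CLSI guidelines in RPMI 1640 with serial 2-fold compound dilutions. Spore suspension from sporulating colonies adjusted to OD530 0.09-0.13, diluted 1:50 as 2× inoculum and added 1:2 to drug wells; plates incubated at 35 °C and MIC read per CLSI.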

[2] = tested on: Candida albicans (ATCC 90029); test: as above; format: cell-based; conditions: Candida albicans
How it was run: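 Broth microdilution per CLSI guidelines in RPMI 1640; inoculum set to OD530 0.08–0.13, diluted 1:50 then 1:20 to 2× strength and mixed 1:2 with 2-fold serial compound dilutions. Incubated at 35° C; MIC read per CLSI.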

[3] = pH (Table 1); format: physicochemical
[4] = tested on: Pseudomonas aeruginosa (ATCC 27853); test: Time kill study, Example 33 (0 to 5 min); format: cell-based; conditions: 1×MIC
How it was run: (§1)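 Per CLSI guidelines, strain suspensions were mixed 1:1 by volume with compound solution; samples taken at 0 min, 30 sec, 1 min and 5 min were diluted and plated on agar. Colonies were counted after 24 to 48 hrs incubation and viable counts reported as Log10 CFU/mL.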

[5] = tested on: Staphylococcus aureus (ATCC 29213); test: Time kill study, Example 33 (0 to 5 min); format: cell-based; conditions: 1×MIC
How it was run: as §1

[6] = tested on: Escherichia coli; test: Extended time kill study, Example 34 (0 to 24 h); format: cell-based
How it was run: (§2)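 Strain suspensions prepared as for MIC testing were mixed 1:1 with compound solution at higher multiples of MIC. Samples taken over 0 to 24 h were diluted in test medium and plated on agar, and colonies were counted after 24–48 h incubation.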

[7] = tested on: Pseudomonas aeruginosa; test: Extended time kill study, Example 34 (0 to 24 h); format: cell-based
How it was run: as §2

[8] = tested on: Candida albicans (ATCC 90029); test: Time kill study, Example 33 (0 to 5 min); format: cell-based; conditions: 1×MIC
How it was run: as §1

[9] = CMCC98003, Table 19 summary, read-out: MIC
[10] = CMCC98003, n = 1, read-out: MIC Aspergillus niger
[11] = CMCC98003, n = 2, read-out: MIC Aspergillus niger
[12] = ATCC90029, Table 19 summary, read-out: MIC
[13] = ATCC90029, n = 1, read-out: MIC Candida albicans
[14] = ATCC90029, n = 2, read-out: MIC Candida albicans

Compound: CCCCCCCCCCCCOC(=O)C(C)NC(C)C.Cl (stereo not shown) [Nex-60, Dodecyl 2-(isopropylamino)propanoate hydrochloride]
- MIC [1, 9]: > 12500 µg/mL
- MIC [1, 10]: > 12500 µg/mL
- MIC [1, 11]: > 12500 µg/mL
- MIC [2, 12]: 12500 µg/mL
- MIC [2, 13]: 12500 µg/mL
- MIC [2, 14]: 12500 µg/mL
- pH [3]: 2.04
- Viable counts, Pseudomonas aeruginosa time kill study ([4]; 0.5 min): 4.6 Log10 CFU/mL
- Viable counts, Pseudomonas aeruginosa time kill study ([4]; 1 min): 3.7 Log10 CFU/mL
- Viable counts, Pseudomonas aeruginosa time kill study ([4]; 5 min): <3.52 Log10 CFU/mL
- Viable counts, Pseudomonas aeruginosa time kill study ([4]; time 0): 5.58 Log10 CFU/mL
- Viable counts, Staphylococcus aureus time kill study ([5]; 0.5 min): 6.23 Log10 CFU/mL
- Viable counts, Staphylococcus aureus time kill study ([5]; 1 min): 6.25 Log10 CFU/mL
- Viable counts, Staphylococcus aureus time kill study ([5]; 5 min): 6.21 Log10 CFU/mL
- Viable counts, Staphylococcus aureus time kill study ([5]; time 0): 6.28 Log10 CFU/mL
- Viable counts, Escherichia coli time kill study ([6]; 1 × MIC, 1 h): <1 Log10 CFU/mL
- Viable counts, Escherichia coli time kill study ([6]; 1 × MIC, 2 h): <1 Log10 CFU/mL
- Viable counts, Escherichia coli time kill study ([6]; 1 × MIC, 4 h): <1 Log10 CFU/mL
- Viable counts, Escherichia coli time kill study ([6]; 1 × MIC, 6 h): <1 Log10 CFU/mL
- Viable counts, Escherichia coli time kill study ([6]; 1 × MIC, 24 h): <1 Log10 CFU/mL
- Viable counts, Escherichia coli time kill study ([6]; 1×MIC, time 0): 5.02 Log10 CFU/mL
- Viable counts, Escherichia coli time kill study ([6]; 2 × MIC, 1 h): <1 Log10 CFU/mL
- Viable counts, Escherichia coli time kill study ([6]; 2 × MIC, 2 h): <1 Log10 CFU/mL
- Viable counts, Escherichia coli time kill study ([6]; 2 × MIC, 4 h): <1 Log10 CFU/mL
- Viable counts, Escherichia coli time kill study ([6]; 2 × MIC, 6 h): <1 Log10 CFU/mL
- Viable counts, Escherichia coli time kill study ([6]; 2 × MIC, 24 h): <1 Log10 CFU/mL
- Viable counts, Escherichia coli time kill study ([6]; 2 × MIC, time 0): 5.14 Log10 CFU/mL
- Viable counts, Escherichia coli time kill study ([6]; 4 × MIC, 1 h): <1 Log10 CFU/mL
- Viable counts, Escherichia coli time kill study ([6]; 4 × MIC, 2 h): <1 Log10 CFU/mL
- Viable counts, Escherichia coli time kill study ([6]; 4 × MIC, 4 h): <1 Log10 CFU/mL
- Viable counts, Escherichia coli time kill study ([6]; 4 × MIC, 6 h): <1 Log10 CFU/mL
- Viable counts, Escherichia coli time kill study ([6]; 4 × MIC, 24 h): <1 Log10 CFU/mL
- Viable counts, Escherichia coli time kill study ([6]; 4 × MIC, time 0): 5.07 Log10 CFU/mL
- Viable counts, Pseudomonas aeruginosa time kill study ([7]; 1 × MIC, 1 h): <1 Log10 CFU/mL
- Viable counts, Pseudomonas aeruginosa time kill study ([7]; 1 × MIC, 2 h): <1 Log10 CFU/mL
- Viable counts, Pseudomonas aeruginosa time kill study ([7]; 1 × MIC, 4 h): <1 Log10 CFU/mL
- Viable counts, Pseudomonas aeruginosa time kill study ([7]; 1 × MIC, 6 h): <1 Log10 CFU/mL
- Viable counts, Pseudomonas aeruginosa time kill study ([7]; 1 × MIC, 24 h): <1 Log10 CFU/mL
- Viable counts, Pseudomonas aeruginosa time kill study ([7]; 1×MIC, time 0): 5.30 Log10 CFU/mL
- Viable counts, Pseudomonas aeruginosa time kill study ([7]; 2 × MIC, 1 h): <1 Log10 CFU/mL
- Viable counts, Pseudomonas aeruginosa time kill study ([7]; 2 × MIC, 2 h): <1 Log10 CFU/mL
- Viable counts, Pseudomonas aeruginosa time kill study ([7]; 2 × MIC, 4 h): <1 Log10 CFU/mL
- Viable counts, Pseudomonas aeruginosa time kill study ([7]; 2 × MIC, 6 h): <1 Log10 CFU/mL
- Viable counts, Pseudomonas aeruginosa time kill study ([7]; 2 × MIC, 24 h): <1 Log10 CFU/mL
- Viable counts, Pseudomonas aeruginosa time kill study ([7]; 2 × MIC, time 0): 5.28 Log10 CFU/mL
- Viable counts, Pseudomonas aeruginosa time kill study ([7]; 4 × MIC, 1 h): <1 Log10 CFU/mL
- Viable counts, Pseudomonas aeruginosa time kill study ([7]; 4 × MIC, 2 h): <1 Log10 CFU/mL
- Viable counts, Pseudomonas aeruginosa time kill study ([7]; 4 × MIC, 4 h): <1 Log10 CFU/mL
- Viable counts, Pseudomonas aeruginosa time kill study ([7]; 4 × MIC, 6 h): <1 Log10 CFU/mL
- Viable counts, Pseudomonas aeruginosa time kill study ([7]; 4 × MIC, 24 h): <1 Log10 CFU/mL
- Viable counts, Pseudomonas aeruginosa time kill study ([7]; 4 × MIC, time 0): 5.31 Log10 CFU/mL

Compound: CCCCCCCCCCCCOC(=O)C(C)NCCO.Cl (stereo not shown) [Nex-61, Dodecyl 2-((2-hydroxyethyl)amino)propanoate hydrochloride]
- MIC [1, 9]: 50 µg/mL
- MIC [1, 10]: 50 µg/mL
- MIC [1, 11]: 25 µg/mL
- MIC [2, 12]: 12.5 µg/mL
- MIC [2, 13]: 12.5 µg/mL
- MIC [2, 14]: 12.5 µg/mL
- pH [3]: 1.50
- Viable counts, Pseudomonas aeruginosa time kill study ([4]; 0.5 min): 4 Log10 CFU/mL
- Viable counts, Pseudomonas aeruginosa time kill study ([4]; 1 min): <3.70 Log10 CFU/mL
- Viable counts, Pseudomonas aeruginosa time kill study ([4]; 5 min): <3.52 Log10 CFU/mL
- Viable counts, Pseudomonas aeruginosa time kill study ([4]; time 0): 5.71 Log10 CFU/mL
- Viable counts, Candida albicans time kill study ([8]; 0.5 min): 5.19 Log10 CFU/mL
- Viable counts, Candida albicans time kill study ([8]; 1 min): 5.36 Log10 CFU/mL
- Viable counts, Candida albicans time kill study ([8]; 5 min): 5.3 Log10 CFU/mL
- Viable counts, Candida albicans time kill study ([8]; time 0): 5.23 Log10 CFU/mL
- Viable counts, Staphylococcus aureus time kill study ([5]; 0.5 min): 6.15 Log10 CFU/mL
- Viable counts, Staphylococcus aureus time kill study ([5]; 1 min): 6.07 Log10 CFU/mL
- Viable counts, Staphylococcus aureus time kill study ([5]; 5 min): 5.54 Log10 CFU/mL
- Viable counts, Staphylococcus aureus time kill study ([5]; time 0): 6.38 Log10 CFU/mL
- Viable counts, Escherichia coli time kill study ([6]; 1 × MIC, 1 h): 1.70 Log10 CFU/mL
- Viable counts, Escherichia coli time kill study ([6]; 1 × MIC, 2 h): 1.60 Log10 CFU/mL
- Viable counts, Escherichia coli time kill study ([6]; 1 × MIC, 4 h): 3.16 Log10 CFU/mL
- Viable counts, Escherichia coli time kill study ([6]; 1 × MIC, 6 h): 4.38 Log10 CFU/mL
- Viable counts, Escherichia coli time kill study ([6]; 1 × MIC, 24 h): 7.75 Log10 CFU/mL
- Viable counts, Escherichia coli time kill study ([6]; 1×MIC, time 0): 5.08 Log10 CFU/mL
- Viable counts, Escherichia coli time kill study ([6]; 2 × MIC, 1 h): <1 Log10 CFU/mL
- Viable counts, Escherichia coli time kill study ([6]; 2 × MIC, 2 h): <1 Log10 CFU/mL
- Viable counts, Escherichia coli time kill study ([6]; 2 × MIC, 4 h): <1 Log10 CFU/mL
- Viable counts, Escherichia coli time kill study ([6]; 2 × MIC, 6 h): <1 Log10 CFU/mL
- Viable counts, Escherichia coli time kill study ([6]; 2 × MIC, 24 h): <1 Log10 CFU/mL
- Viable counts, Escherichia coli time kill study ([6]; 2 × MIC, time 0): 5.03 Log10 CFU/mL
- Viable counts, Escherichia coli time kill study ([6]; 4 × MIC, 1 h): <1 Log10 CFU/mL
- Viable counts, Escherichia coli time kill study ([6]; 4 × MIC, 2 h): <1 Log10 CFU/mL
- Viable counts, Escherichia coli time kill study ([6]; 4 × MIC, 4 h): <1 Log10 CFU/mL
- Viable counts, Escherichia coli time kill study ([6]; 4 × MIC, 6 h): <1 Log10 CFU/mL
- Viable counts, Escherichia coli time kill study ([6]; 4 × MIC, 24 h): <1 Log10 CFU/mL
- Viable counts, Escherichia coli time kill study ([6]; 4 × MIC, time 0): 5.05 Log10 CFU/mL
- Viable counts, Pseudomonas aeruginosa time kill study ([7]; 1 × MIC, 1 h): <1 Log10 CFU/mL
- Viable counts, Pseudomonas aeruginosa time kill study ([7]; 1 × MIC, 2 h): <1 Log10 CFU/mL
- Viable counts, Pseudomonas aeruginosa time kill study ([7]; 1 × MIC, 4 h): <1 Log10 CFU/mL
- Viable counts, Pseudomonas aeruginosa time kill study ([7]; 1 × MIC, 6 h): <1 Log10 CFU/mL
- Viable counts, Pseudomonas aeruginosa time kill study ([7]; 1 × MIC, 24 h): <1 Log10 CFU/mL
- Viable counts, Pseudomonas aeruginosa time kill study ([7]; 1×MIC, time 0): 5.28 Log10 CFU/mL
- Viable counts, Pseudomonas aeruginosa time kill study ([7]; 2 × MIC, 1 h): <1 Log10 CFU/mL
- Viable counts, Pseudomonas aeruginosa time kill study ([7]; 2 × MIC, 2 h): <1 Log10 CFU/mL
- Viable counts, Pseudomonas aeruginosa time kill study ([7]; 2 × MIC, 4 h): <1 Log10 CFU/mL
- Viable counts, Pseudomonas aeruginosa time kill study ([7]; 2 × MIC, 6 h): <1 Log10 CFU/mL
- Viable counts, Pseudomonas aeruginosa time kill study ([7]; 2 × MIC, 24 h): <1 Log10 CFU/mL
- Viable counts, Pseudomonas aeruginosa time kill study ([7]; 2 × MIC, time 0): 5.29 Log10 CFU/mL
- Viable counts, Pseudomonas aeruginosa time kill study ([7]; 4 × MIC, 1 h): <1 Log10 CFU/mL
- Viable counts, Pseudomonas aeruginosa time kill study ([7]; 4 × MIC, 2 h): <1 Log10 CFU/mL
- Viable counts, Pseudomonas aeruginosa time kill study ([7]; 4 × MIC, 4 h): <1 Log10 CFU/mL
- Viable counts, Pseudomonas aeruginosa time kill study ([7]; 4 × MIC, 6 h): <1 Log10 CFU/mL
- Viable counts, Pseudomonas aeruginosa time kill study ([7]; 4 × MIC, 24 h): <1 Log10 CFU/mL
- Viable counts, Pseudomonas aeruginosa time kill study ([7]; 4 × MIC, time 0): 5.26 Log10 CFU/mL
